Experimental data as given in patent EP4702986A1, “POLYPEPTIDE AND USE THEREOF” (Biocells (Beijing) Biotech Co., Ltd., priority 2023, dated 2024).
Numbered stars: 1 amine (or outer) side, 2 acyl side, 3 side chain; on linkers, the order of the positions; unused ones are H or OH. Side chains are listed from the residue outwards. Peptide text beside a SMILES is read from it. * marks the point of attachment. C18 diacid = O=C(O)CCCCCCCCCCCCCCCCC(=O)*; γGlu = O=C(O)[C@H](CCC(=O)[*:2])N[*:1]; Fumaroyl = O=C(O)/C=C/C(=O)*; Suc = O=C(CCC(=O)[*:2])[*:1]; Lauroyl = CCCCCCCCCCCC(=O)*; AEEA = NCCOCCOCC(=O)O

How the values were obtained:
rat model of pMACO [1] = test: Garcia JH scoring in rat model of pMACO; type: in vivo, SD rats; parameters: 5 min Spontaneous Activity / Body Symmetry / Forelimb Extension Movement / Cage Climbing / Body Tactile Response on Both Sides / Beard Touch Reaction on Both Sides / Total Score: scale not given here; settings: for 5 min Spontaneous Activity / Beard Touch Reaction on Both Sides / Body Symmetry / Body Tactile Response on Both Sides / Cage Climbing / Forelimb Extension Movement / Total Score: Garcia JH score
Source text: Male SD rats, weighing 280-300 g, were used and acclimatized for at least 3 days. Focal cerebral ischemia was induced by middle cerebral artery occlusion with a suture method under isoflurane anesthesia. The animals were placed in a supine position, a midline incision was made, and the right common carotid artery, external carotid artery, and internal carotid artery were exposed. A 4.0 monofilament nylon suture was advanced from the external carotid artery toward the internal carotid artery lumen until resistance was felt (~20 mm), indicating middle cerebral artery occlusion. The nylon filament was allowed to stay in place to create a permanent model of focal cerebral ischemia. The day of modeling was defined as D1, the next day as D2, and so on. Since the experiment was not be completed in a single batch, and in order to prevent accidental errors, all operations in this experiment had to follow the principle of parallel operation, i.e., the experiment on each day needed to include animals from each group. Sequential numbering for surgical modeling was obtained by sorting the animals according to their body weight before the experiment. After the surgery, successfully modeled pMCAO rats were randomly assigned into a model group and various treatment groups. The detailed grouping of the experiment was as follows: (1) 15 rats in the 5 µg/Kg IRL1620 group with 9 administrations over 3 days; (2) 15 rats in the 6.6 µg/Kg BX225 group with 9 administrations over 3 days; (3) 15 rats in the 19.8 µg/Kg BX225 group with 3 administrations over 3 days; (4) 15 rats in the model (normal saline) group; and (5) 6 rats in the sham group (the sham group underwent the same procedure without vascular ligation and suture insertion). The administration was performed via tail vein injection (iv) with an administration volume of 2 mL/kg. The first administration was 2 hours after the surgery. Administration frequencies were single and multiple administrations per day according to the experimental design. Administrations were performed on D1, D3, and D6, respectively, as detailed in Table 22. The model group and the sham group were given the same volume of vehicle normal saline.

rat model of pMACO [2] = test: Foot fault test in rat model of pMACO; type: in vivo, SD rats; settings: for Foot fault Analysis Mean of 7D: percentage of foot faults at 7D; for Foot fault Analysis Mean of 7D / Foot fault Analysis Mean of 24h: IRL1620 5 µg/Kg, administered 3 times (2, 4, 6 hours after modeling); for Foot fault Analysis Mean of 7D / Foot fault Analysis Mean of 24h / Foot fault Analysis Mean of Pretest: BX34 7 µg/Kg, BX48 5 µg/Kg; for Foot fault Analysis Mean of 24h: percentage of foot faults at 24h; for Foot fault Analysis Mean of Pretest: percentage of foot faults, pretest (baseline before administration), groups IRL1620 5 µg/Kg, 3 times
Source text: Male SD rats weighing 280-300 g were used and acclimated for at least 3 days. Focal cerebral ischemia was induced by middle cerebral artery occlusion with a suture method under isoflurane anesthesia. The animals were placed in a secure supine position, and a midline incision was made to expose the right common carotid artery, external carotid artery, and internal carotid artery. A 4.0 monofilament nylon suture was advanced from the external carotid artery toward the internal carotid artery lumen until resistance was felt ( ~ 20 mm), indicating middle cerebral artery occlusion. The nylon filament was allowed to stay in place to create a permanent model of focal cerebral ischemia. Successfully modeled rats were randomly assigned to four groups: a solvent (normal saline) group (n=10), a 7 µg/Kg BX-34 group (n=10), a 5 µg/Kg BX-48 group (n=10), and a 5 µg/Kg IRL1620 group (n=10). Each group was administered once at 2 hours, 4 hours, and 6 hours, respectively, after modeling, for a total of three administrations. Grip strength was measured before administration and at 24 hours and on D3 and D7 after administration. A rotarod test and a foot fault test were performed before administration and at 24 hours and day 7 after administration. During the rotarod test, time and distance were recorded, and ratios of the measurement at 24 hours and the measurement at D7 to the pretest measurement were used as analysis indicators. The specific method for the foot fault test was as follows. The rats were placed on an elevated grid floor (29×29 cm, grid opening: 3 cm^2) for 2 minutes, and the number of foot faults (when a forelimb fell through the grid) and the total steps were recorded. % Foot fault = (the number of forelimb faults/the total number of forelimb steps) × 100.

rat model of pMACO [3] = test: Grip strength test in rat model of pMACO; type: in vivo, SD rats
mouse model of dMACO = test: Cerebral blood flow perfusion in mouse model of dMACO (laser speckle flowmeter); type: in vivo, C57 BL/6 mice
Source text: Eight-week-old male C57 BL/6 mice were used and acclimated for at least 3 days. On the day of experiment, the mice were anesthetized with isoflurane, and an incision of approximately 2 cm in length was made in the middle of the […]. The mice were placed under a laser speckle flowmeter to capture a video of blood flow on both sides of the brain as images of pre-ischemic blood flow perfusion. Subsequently, a skull incision (3 mm×1.5 mm) was made at the right rear of the intersection of the sagittal suture and the coronal suture with a skull drill. The distal end of the right middle cerebral artery was located under a microscope, and a No.11 suture was used to ligate the middle artery. Meanwhile, the right common carotid artery was separated and ligated. A video of blood flow on both sides of the brain was captured again as images of post-ischemic blood flow perfusion. The scalp was sutured, and the animals were rewarmed in a rewarming box. Successfully modeled dMACO mice were randomly assigned to single-dose BX-34 groups of 7, 14, and 42 µg/Kg, single-dose IRL1620 groups of 5 and 10 µg/Kg, a three-dose IRL1620 group of 10 µg/Kg, and a normal saline control group. The single-dose groups were administered via tail vein 1 h after modeling, while the three-dose group was administered via tail vein at 1 hour, 3 hours, and 5 hours after modeling. A video of blood flow on both sides of the brain of each animal was captured again at 24 hours, 48 hours, and D7 after administration. During data analysis, the ROI was introduced or the area requiring blood flow calculation was selected. The average blood flow of the selected area was calculated by double-clicking on the blood flow image. Ratios of the average blood flow perfusions on right brain after modeling, and 24 hours, 48 hours and D7 after administration, to the average blood flow on right brain before modeling were used for statistical analysis of each group.

[4] = Day 21, 19.8 µg/Kg, 1Time regimen
[5] = Day 21, 3Time regimen: IRL1620 5 µg/Kg, BX225 6.6 µg/Kg
[6] = Day 30, 19.8 µg/Kg, 1Time regimen
[7] = Day 30, 3Time regimen: IRL1620 5 µg/Kg, BX225 6.6 µg/Kg
[8] = pMCAO rats, 6.6 µg/Kg three-dose group, iv
[9] = pMACO rats, 3 administrations (2, 4, 6 h after modeling), IRL1620 5µg/Kg, BX34 7µg/Kg, BX48 5µg/Kg

## CCCCCCCCCCCC(=O)N[C@@H](CCC(=O)NCCOCCOCC(=O)NCCCC[C@H](NC(=O)[C@H](Cc1c[nH]cn1)NC(=O)[C@H](C)NC(=O)[C@H](Cc1ccccc1)NC(=O)[C@H](Cc1ccc(O)cc1)NC(=O)[C@@H](NC(=O)[C@H](C)NC(=O)[C@H](CCC(=O)O)NC(=O)[C@H](CCC(=O)O)NC(=O)[C@H](CC(=O)O)NC(=O)/C=C/C(=O)O)C(C)C)C(=O)N[C@@H](CC(=O)O)C(=O)N[C@H](C(=O)N[C@H](C(=O)N[C@@H](Cc1c[nH]c2ccccc12)C(=O)O)[C@@H](C)CC)[C@@H](C)CC)C(=O)O [BX-225] (Fumaroyl-DEEAVYFAHK([AEEA-γGlu-Lauroyl])DIIW-OH)
Rat model of pMACO [1]; [4]
  5 min Spontaneous Activity: 1.17±1.47
  Beard Touch Reaction on Both Sides: 1.63±0.80
  Body Symmetry: 0.63±0.80
  Body Tactile Response on Both Sides: 1.60±0.77
  Cage Climbing: 1.69± 0.85
  Forelimb Extension Movement: 0.80±1.01
  Total Score: 7.51± 5.58
Rat model of pMACO [1]; [5]
  5 min Spontaneous Activity: 2.89±0.33
  Beard Touch Reaction on Both Sides: 2.70±0.25
  Body Symmetry: 1.74±0.48
  Body Tactile Response on Both Sides: 2.50±0.23
  Cage Climbing: 2.30± 0.71
  Forelimb Extension Movement: 1.87±0.52
  Total Score: 13.99 ±1.49
Rat model of pMACO [1]; [6]
  5 min Spontaneous Activity: 1.25±1.54
  Beard Touch Reaction on Both Sides: 1.50±0.65
  Body Symmetry: 0.78±0.98
  Body Tactile Response on Both Sides: 1.46±0.59
  Cage Climbing: 1.79±0.98
  Forelimb Extension Movement: 0.93+1.15
  Total Score: 7.71± 5.82
Rat model of pMACO [1]; [7]
  5 min Spontaneous Activity: 3.00±0.00
  Beard Touch Reaction on Both Sides: 2.39±0.13
  Body Symmetry: 2.07±0.29
  Body Tactile Response on Both Sides: 2.29±0.18
  Cage Climbing: 2.81±0.15
  Forelimb Extension Movement: 2.25±0.23
  Total Score: 14.81 ±0.56
Rat model of pMACO [1]; [8]
  Garcia JH scores on days 21 and 30 compared with the normal saline group: statistical differences
  Garcia JH scores, course from day 7, day 14, day 21, to day 30: continuous improvement trend

## CC[C@H](C)[C@H](NC(=O)[C@H](CC(=O)O)NC(=O)[C@H](CC(C)C)NC(=O)[C@H](Cc1c[nH]cn1)NC(=O)[C@H](C)NC(=O)[C@H](Cc1ccccc1)NC(=O)[C@H](Cc1ccc(O)cc1)NC(=O)[C@@H](NC(=O)[C@H](C)NC(=O)[C@H](CCC(=O)O)NC(=O)[C@H](CCC(=O)O)NC(=O)[C@H](CC(=O)O)NC(=O)CCC(=O)O)C(C)C)C(=O)N[C@H](C(=O)N[C@@H](Cc1c[nH]c2ccccc12)C(=O)O)[C@@H](C)CC [IRL1620, reference compound] (Suc-DEEAVYFAHLDIIW-OH)
Rat model of pMACO [2]
  Foot fault Analysis Mean of 7D: 4.3%+3.14%
  Foot fault Analysis Mean of 24h: 14.2%±17.61%
  Foot fault Analysis Mean of Pretest: 1%±2%
Rat model of pMACO [1]; [5]
  5 min Spontaneous Activity: 1.77±1.48
  Beard Touch Reaction on Both Sides: 1.95±0.82
  Body Symmetry: 0.90±0.80
  Body Tactile Response on Both Sides: 1.79±0.70
  Cage Climbing: 2.03± 0.86
  Forelimb Extension Movement: 1.26±1.05
  Total Score: 9.70± 5.58
Rat model of pMACO [3]; [9]
  Grip Strength Test 3D/pre: 57%±11%
  Grip Strength Test 7D/pre: 61%+13%
  Grip Strength Test 24h/pre: 47% ±27%
Mouse model of dMACO; dMCAO mice, single dose of 5 µg/kg via tail vein
  cerebral blood flow perfusion amount compared to the normal saline group: no significant differences
Mouse model of dMACO; mouse, in vivo
  cerebral blood flow perfusion amount compared to the normal saline group: no significant differences

## CC[C@H](C)[C@H](NC(=O)[C@H](CC(=O)O)NC(=O)[C@H](CCCCNC(=O)COCCOCCNC(=O)COCCOCCNC(=O)CC[C@H](NC(=O)CCCCCCCCCCCCCCCCC(=O)O)C(=O)O)NC(=O)[C@H](Cc1c[nH]cn1)NC(=O)[C@H](C)NC(=O)[C@H](Cc1ccccc1)NC(=O)[C@H](Cc1ccc(O)cc1)NC(=O)[C@@H](NC(=O)[C@H](C)NC(=O)[C@H](CCC(=O)O)NC(=O)[C@H](CCC(=O)O)NC(=O)[C@H](CC(=O)O)NC(=O)/C=C/C(=O)O)C(C)C)C(=O)N[C@H](C(=O)N[C@@H](Cc1c[nH]c2ccccc12)C(=O)O)[C@@H](C)CC [BX-34] (Fumaroyl-DEEAVYFAHK([AEEA-AEEA-γGlu-C18 diacid])DIIW-OH)
Rat model of pMACO [2]; pMACO rats, BX-34 7 µg/Kg, BX-48 5 µg/Kg, three administrations
  percentages of foot faults compared with the saline group and the IRL1620 group: lower
Rat model of pMACO [2]
  Foot fault Analysis Mean of 7D: 3.46%±2.92%
  Foot fault Analysis Mean of 24h: 10.64%±15.53%
  Foot fault Analysis Mean of Pretest: 1%±1%
Rat model of pMACO [3]; rat, in vivo
  Grip Strength Test 3D/pre: 63% ±14%
  Grip Strength Test 7D/pre: 67% ±19%
  Grip Strength Test 24h/pre: 40% ±24%
Mouse model of dMACO; dMCAO mice, single dose of 42 µg/kg via tail vein, 24 hours, 48 hours and D7 after administration
  cerebral blood flow perfusion amount compared to the normal saline group: significantly increased
